According to ChEMBL document CHEMBL1130686, “A new series of C3-aza carbocyclic influenza neuraminidase inhibitors: synthesis and inhibitory activity” (Bioorg Med Chem Lett, 1998):

Biological target: Neuraminidase (Influenza A virus (A/Puerto Rico/8/1934(H1N1)), UniProt P03468)
Assay: Inhibition of neuraminidase of influenza A

**Q.** How did the IC50 turn out when `CCC(CC)N(C)[C@@H]1C=C(C(=O)O)C[C@H](N)[C@H]1NC(C)=O` was run?
**A.** Its IC50 is 6 nM.

**Q.** How did the IC50 turn out when `CCCCN(C)[C@@H]1C=C(C(=O)O)C[C@H](N)[C@H]1NC(C)=O` was run?
**A.** The IC50 was 180 nM.

**Q.** For `CCC(=O)N[C@@H]1C=C(C(=O)O)C[C@H](N)[C@H]1NC(C)=O`, which IC50 is on record?
**A.** The IC50 was 2700 nM.

**Q.** `CCC(CC)N[C@@H]1C=C(C(=O)O)C[C@H](N)[C@H]1NC(C)=O` was tested. Which IC50 did it give?
**A.** The IC50 was 11 nM.

**Q.** How did the IC50 turn out when `CCC(CC)C(=O)N[C@@H]1C=C(C(=O)O)C[C@H](N)[C@H]1NC(C)=O` was run?
**A.** The IC50 was 4000 nM.

**Q.** `CC(=O)N[C@H]1[C@H](N(C)CCc2ccccc2)C=C(C(=O)O)C[C@@H]1N` was tested. Which IC50 did it give?
**A.** Its IC50 is 100 nM.

**Q.** How did the IC50 turn out when `CCCCN(CC)[C@@H]1C=C(C(=O)O)C[C@H](N)[C@H]1NC(C)=O` was run?
**A.** The IC50 was 85 nM.

**Q.** For `CC(=O)N[C@H]1[C@H](N(C)C2CCCCC2)C=C(C(=O)O)C[C@@H]1N`, which IC50 is on record?
**A.** Its IC50 is 200 nM.

**Q.** `CCCN(CCC)[C@@H]1C=C(C(=O)O)C[C@H](N)[C@H]1NC(C)=O` was tested. Which IC50 did it give?
**A.** The IC50 was 12 nM.

**Q.** How did the IC50 turn out when `CCCN(CC)[C@@H]1C=C(C(=O)O)C[C@H](N)[C@H]1NC(C)=O` was run?
**A.** The IC50 was 90 nM.

**Q.** For `CCCN[C@@H]1C=C(C(=O)O)C[C@H](N)[C@H]1NC(C)=O`, which IC50 is on record?
**A.** Its IC50 is 200 nM.

**Q.** How did the IC50 turn out when `CC(=O)N[C@@H]1[C@@H](N)CC(C(=O)O)=C[C@H]1NC(=O)C(C)C` was run?
**A.** The IC50 was 6400 nM.
